{
  "source": "patent US20120022121A1",
  "about": "“INDOLES, DERIVATIVES AND ANALOGS THEREOF AND USES THEREFOR” (priority 2007, published 2012)",
  "key": {"[1]": {"tested_on": "K562", "test": "Growth inhibition assay (MTT, 96 h)", "format": "cell-based", "conditions": "Homo sapiens, K562 (parental)", "text": "(§1) MTT (3-(4,5-dimethylthiazol-2-yl)-2,5-diphenyltetrazolium bromide) assay was also used for the leukemia cell lines. […] Cells were stained with SRB solution or MTT solution."}, "[2]": {"tested_on": "PPC-1", "test": "Growth inhibition assay (SRB, 96 h)", "format": "cell-based", "conditions": "Homo sapiens, PPC-1, 96 h", "text": "as §1"}, "[3]": {"tested_on": "LNCaP", "test": "Growth inhibition assay (SRB, 96 h)", "format": "cell-based", "conditions": "Homo sapiens", "text": "as §1"}, "[4]": {"tested_on": "DU-145", "test": "Growth inhibition assay (SRB, 96 h)", "format": "cell-based", "conditions": "Homo sapiens, DU-145, 96 h", "text": "as §1"}, "[5]": {"tested_on": "MDR cell lines with high levels of P-gp, MRP1, MRP2, or BCRP", "test": "Cytotoxicity assay using MDR cell lines", "format": "cell-based, human", "conditions": "MRP1, MRP2, BCRP over-expressing cells", "text": "as §1\nSince ABC transporters are thought to be one of the major causes of MDR of anticancer drugs, the antitumoral efficacy of 68 was compared with other anticancer drugs in a cytotoxicity assay using MDR cell lines with high levels of P-gp, MRP1, MRP2, or BCRP (Table 1). […] In contrast, the cytotoxicity efficacy of 68 against cancer cells was unaltered by the MDR phenotypes."}, "[6]": {"tested_on": "Tubulin proteins", "test": "Tubulin polymerization in vitro (absorbance 340 nm)", "format": "biochemical", "conditions": "20 μM, 37° C., 30 minutes", "protocol": "Cell viability (LNCaP, PC-3 prostate, DU145, PPC-1, and TSU-Pr1 prostate cancer cell lines, HT-29 colon cancer cell line, and MCF-7 breast cancer cell line) was quantitated using the sulforhodamine B (SRB) assay after 96 h coincubation with different concentrations of compound in 96-well plates. Cell viability of leukemia cells (K562 and doxorubicin-resistant K562/Dox) was quantitated by MTT assay after 96 h coincubation with different concentrations of compound in 96-well plates. Drug-induced apoptosis was determined by anti-histone ELISA assay and DNA laddering. Cell cycle progression was assessed by propidium iodide staining and fluorescence-activated cell sorting (FACS) analysis. In vitro tubulin polymerization assay was determined by CytoDYNAMIX ScreenTM3 (CDS-03) kits according to the manufacturer's instructions. […]\nTubulin proteins (greater than 99% purity) were suspended (300 μg per sample) with 100 μl G-PEM buffer composed of 80 mM PIPES (piperazine-N,N′-bis(2-ethanesulfonic acid)), 2 mM MgCl2, 0.5 mM egtazic acid and 1.0 mM guanosine triphosphate (GTP), pH 6.9, plus 5% glycerol in the absence or presence of the compound 13 at 4° C. The sample mixture was transferred to the prewarmed 96-well plate and absorbance was detected each minute for 30 minutes at 340 nm at 37° C."}, "[7]": {"tested_on": "LNCaP cells", "test": "Cell cycle distribution (PI staining, FACS)", "format": "cell-based, human", "conditions": "LNCaP cells, 0, 50, 100 and 200 nM, 24 h", "protocol": "LNCaP cells were treated with 0, 50, 100 and 200 nM of compound 13 for 24 h (FIG. 11A). Cells were then harvested and fixed with 70% ethanol. Cell cycle distribution was determined by propidium iodide (P1) staining and analyzed by fluorescence-activated cell sorting (FACS) analysis."}, "[8]": {"tested_on": "LNCaP and PC-3 cells", "test": "Anti-histone ELISA for apoptosis", "format": "cell-based, human", "conditions": "100 nM; LNCaP 24 h, PC-3 48 h", "protocol": "(§2) Cell viability (LNCaP, PC-3 prostate, DU145, PPC-1, and TSU-Pr1 prostate cancer cell lines, HT-29 colon cancer cell line, and MCF-7 breast cancer cell line) was quantitated using the sulforhodamine B (SRB) assay after 96 h coincubation with different concentrations of compound in 96-well plates. Cell viability of leukemia cells (K562 and doxorubicin-resistant K562/Dox) was quantitated by MTT assay after 96 h coincubation with different concentrations of compound in 96-well plates. Drug-induced apoptosis was determined by anti-histone ELISA assay and DNA laddering. Cell cycle progression was assessed by propidium iodide staining and fluorescence-activated cell sorting (FACS) analysis. In vitro tubulin polymerization assay was determined by CytoDYNAMIX ScreenTM3 (CDS-03) kits according to the manufacturer's instructions. Anti-apoptosis protein (Bcl-2 and Bcl-xl) and pro-apoptosis protein (Bax) were examined in LNCaP and PC-3 after 24 h incubation with different concentrations of compound 13 by Western blot assay. In vivo PC-3 xenograft studies were conducted by i.v. dosing of 50 mg/kg, 100 mg/kg and 150 mg/kg for 2 weeks.\n(§3) 100 nM of compound 13 was incubated with LNCaP for 24 h and PC-3 for 48 h. […] The results are expressed as enrichment factor (Enrichment factor=OD of treated cells/OD from control cells). […]"}, "[9]": {"tested_on": "PC-3 xenograft", "test": "Antitumor activity in PC-3 xenograft", "format": "in vivo, Balb/c mice", "conditions": "50, 100, or 150 mg/kg/d, 5 days on/2 days off", "protocol": "PC-3 tumor cells (2×10^6 cells) were suspended in saline and injected S.C. in both flanks of recipient mice (n=15). Tumor size was measured every other day and volume calculated as V=π/6*(length)x(width)^2 (75). […] Tumor growth and body weight was monitored every other day for the remainder of the study."}, "[10]": {"tested_on": "HT-29", "test": "Cell viability SRB assay, 96 h", "format": "cell-based", "conditions": "Homo sapiens, HT-29, 96 h", "method_in_brief": "(§4)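 Compound, dissolved in DMSO and diluted into culture medium, was added at final concentrations from 0 to 100 μM to cells plated at line-dependent densities. After a 96 hour incubation at 37° C, viable cells were quantified by sulforhodamine B staining.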"}, "[11]": {"tested_on": "MCF-7", "test": "Cell viability SRB assay, 96 h", "format": "cell-based", "conditions": "Homo sapiens, MCF7; MCF-7, 96 h", "method_in_brief": "as §4"}, "[12]": {"tested_on": "Bcl-2", "test": "Western blot of anti- and pro-apoptosis proteins", "format": "cell-based, human", "conditions": "LNCaP and PC-3, increasing concentration, 24 h", "protocol": "as §2, §3"}, "[13]": {"tested_on": "PC-3 cells", "test": "Indirect immunofluorescence microscopy of microtubules", "format": "cell-based, human", "conditions": "24 h, anti-α-tubulin-FITC", "protocol": "PC-3 cells were plated on poly-D-lysine coated glass cover slips in 6-well plates (5×10^4 cells/well) the day before treatment. After cells were incubated with cytotoxic agents at 37° C. for 24 h, cells were fixed on the cover slips with 4% formaldehyde in PBS for 10 min and permeabilized by 2% Triton-X in PBS for 5 min at rt. Fixed cells were blocked with 3% bovine serum albumin in TBST for 30 min and incubated with anti-α-tubulin-FITC antibody (1:100 dilution) at 4° C. overnight. Cover slips were mounted on slides using mounting medium with 4′,6-diamidino-2-phenylindole (DAPI), followed by microscopic analysis with a Zeiss Axioplan 2 fluorescent microscope (Carl Zeiss, Thornwood, N.Y.). Images were acquired with a Zeiss Axiocam HRc, using Zeiss AxioVision."}},
  "data": [
    {"smiles": "COc1cc(C(=O)c2cccc(-c3cc4ccccc4[nH]3)c2)cc(OC)c1OC", "note": "[Compound 68, [3-(1H-Indol-2-yl)-phenyl]-(3,4,5-trimethoxy-phenyl)-methanone]", "values": [
      {"measurement": "IC50", "setting": "[1]", "value": "23.6 ± 2.4", "unit": "nM"},
      {"measurement": "IC50", "setting": "[2]", "value": "18.7 ± 1.5", "unit": "nM"},
      {"measurement": "IC50", "setting": "[3]", "value": "30.9 ± 3.5", "unit": "nM"},
      {"measurement": "IC50", "setting": "[4]", "value": "22.8 ± 4.1", "unit": "nM"},
      {"measurement": "cytotoxicity efficacy against cancer cells with MDR phenotypes", "setting": "[5]", "value": "unaltered"}
    ]},
    {"smiles": "O=C(c1cccc(-c2cc3ccccc3[nH]2)c1)c1cc2ccccc2[nH]1", "note": "[Compound 13, (1H-indol-2-yl)-[3-(1H-indol-2-yl)phenyl]methanone]", "values": [
      {"measurement": "effect on tubulin polymerization", "setting": "[6]", "value": "completely block"},
      {"measurement": "cell cycle arrest", "setting": "[7]", "value": "induces G2/M phase arrest"},
      {"measurement": "apoptosis by anti-histone ELISA", "setting": "[8]", "value": "detected apoptosis"},
      {"measurement": "tumor growth", "setting": "[9]", "value": "suppressed tumor growth in a dose-dependent manner"},
      {"measurement": "IC50", "setting": "[10]", "value": 62, "unit": "nM"},
      {"measurement": "IC50", "setting": "[11]", "value": 162, "unit": "nM"},
      {"measurement": "Bcl-2 level by Western blot", "setting": "[12]", "value": "decreased"}
    ]},
    {"smiles": "CC[C@]1(O)C[C@@H]2CN(CCc3c([nH]c4ccccc34)[C@@](C(=O)OC)(c3cc4c(cc3OC)N(C)[C@H]3[C@@](O)(C(=O)OC)[C@H](OC(C)=O)[C@]5(CC)C=CCN6CC[C@]43[C@@H]65)C2)C1", "note": "[Vinblastine]", "values": [
      {"measurement": "microtubule changes by immunofluorescence", "setting": "[13]", "value": "short microtubules"}
    ]}
  ]
}
